Experimental data from patent US20260053812A1, “METHODS OF TREATING HYPERTENSION WITH A COMBINATION OF AN ALDOSTERONE SYNTHASE INHIBITOR AND A DIURETIC” (Mineralys Therapeutics, Inc., priority 2022, published 2026).

Assay: Adverse events (TEAEs, SAEs, AESI; Safety Analysis Set)
Description: In analyses performed on the Safety Analysis Set, subjects will be analyzed according to their actual treatment received.

CC(=O)N[C@H]1CC[C@H](NC(=O)CN2CCN(c3nncc(-c4ccc(C)cc4)n3)CC2)CC1 [Compound A HBr]
AE requiring dose titration: Hyperkalemia (100 mg QD Pooled, N 60): 2 (3.3%) | AE requiring dose titration: Hyponatremia (100 mg QD Pooled, N 60): 1 (1.7%) | AE requiring dose titration: Other possibly related (100 mg QD Pooled, N 60): 0 | AE requiring dose titration: Other unrelated (100 mg QD Pooled, N 60): 0 | AE requiring study drug discontinuation: Hyperkalemia (100 mg QD Pooled, N 60): 2 (3.3%) | AE requiring study drug discontinuation: Hyponatremia (100 mg QD Pooled, N 60): 1 (1.7%) | AE requiring study drug discontinuation: Hypotension (100 mg QD Pooled, N 60): 2 (3.3%) | AE requiring study drug discontinuation: Other possibly related (100 mg QD Pooled, N 60): 1 (1.7%) | AE requiring study drug discontinuation: Other unrelated (100 mg QD Pooled, N 60): 4 (6.7%) | Serious adverse events (SAEs) related to the study medication (Example 1 analysis, whole trial): No serious adverse events | Subjects with TEAE resulting in dose modification (Part 1): 24 subjects | AE requiring dose titration: Hyperkalemia (Part 1 100 mg QD, N 29): 1 (3.4%) | AE requiring dose titration: Hyponatremia (Part 1 100 mg QD, N 29): 0 | AE requiring dose titration: Other possibly related (Part 1 100 mg QD, N 29): 0 | AE requiring dose titration: Other unrelated (Part 1 100 mg QD, N 29): 0 | AE requiring study drug discontinuation: Hyperkalemia (Part 1 100 mg QD, N 29): 2 (6.9%) | AE requiring study drug discontinuation: Hyponatremia (Part 1 100 mg QD, N 29): 0 | AE requiring study drug discontinuation: Hypotension (Part 1 100 mg QD, N 29): 1 (3.4%) | AE requiring study drug discontinuation: Other possibly related (Part 1 100 mg QD, N 29): 1 (3.4%) | AE requiring study drug discontinuation: Other unrelated (Part 1 100 mg QD, N 29): 3 (6.0%) | On-treatment TEAE, Cardiac disorders, % (Part 1, 12.5 mg BID (N = 22)): (4.5) % | On-treatment TEAE, Cortisol decreased, % (Part 1, 12.5 mg BID (N = 22)): (9.1) % | On-treatment TEAE, Cortisol decreased, Mild, % (Part 1, 12.5 mg BID (N = 22)): (9.1) % | On-treatment TEAE, General disorders and administration site conditions, % (Part 1, 12.5 mg BID (N = 22)): (9.1) % | On-treatment TEAE, General disorders and administration site conditions, Mild, % (Part 1, 12.5 mg BID (N = 22)): (4.5) % | On-treatment TEAE, Glomerular filtration rate decreased, % (Part 1, 12.5 mg BID (N = 22)): (13.6) % | On-treatment TEAE, Glomerular filtration rate decreased, Mild, % (Part 1, 12.5 mg BID (N = 22)): (13.6) % | On-treatment TEAE, Hyperkalaemia, % (Part 1, 12.5 mg BID (N = 22)): (22.7) % | On-treatment TEAE, Hyperkalaemia, Mild, % (Part 1, 12.5 mg BID (N = 22)): (18.2) % | On-treatment TEAE, Hyperkalaemia, Moderate, % (Part 1, 12.5 mg BID (N = 22)): (4.5) % | On-treatment TEAE, Infections and infestations, % (Part 1, 12.5 mg BID (N = 22)): (4.5) % | On-treatment TEAE, Infections and infestations, Moderate, % (Part 1, 12.5 mg BID (N = 22)): (4.5) % | On-treatment TEAE, Investigations, % (Part 1, 12.5 mg BID (N = 22)): (27.3) % | On-treatment TEAE, Investigations, Mild, % (Part 1, 12.5 mg BID (N = 22)): (22.7) % | On-treatment TEAE, Investigations, Moderate, % (Part 1, 12.5 mg BID (N = 22)): (4.5) % | On-treatment TEAE, Metabolism and nutrition disorders, % (Part 1, 12.5 mg BID (N = 22)): (22.7) % | On-treatment TEAE, Metabolism and nutrition disorders, Mild, % (Part 1, 12.5 mg BID (N = 22)): (18.2) % | On-treatment TEAE, Metabolism and nutrition disorders, Moderate, % (Part 1, 12.5 mg BID (N = 22)): (4.5) % | On-treatment TEAE, Nervous system disorders, % (Part 1, 12.5 mg BID (N = 22)): (4.5) % | On-treatment TEAE, Nervous system disorders, Mild, % (Part 1, 12.5 mg BID (N = 22)): (4.5) % | On-treatment TEAE, Orthostatic hypotension, % (Part 1, 12.5 mg BID (N = 22)): (4.5) % | On-treatment TEAE, Orthostatic hypotension, Mild, % (Part 1, 12.5 mg BID (N = 22)): (4.5) % | On-treatment TEAE, Psychiatric disorders, % (Part 1, 12.5 mg BID (N = 22)): (4.5) % | On-treatment TEAE, Psychiatric disorders, Moderate, % (Part 1, 12.5 mg BID (N = 22)): (4.5) % | On-treatment TEAE, Vascular disorders, % (Part 1, 12.5 mg BID (N = 22)): (9.1) % | On-treatment TEAE, Vascular disorders, Mild, % (Part 1, 12.5 mg BID (N = 22)): (9.1) % | Subjects with any On-treatment TEAEs leading to withdrawal from study drug, % (Part 1, 12.5 mg BID (N = 22)): 4.5% | Subjects with any On-treatment TEAEs, Mild, % (Part 1, 12.5 mg BID (N = 22)): (36.4) % | Subjects with any On-treatment TEAEs, Moderate, % (Part 1, 12.5 mg BID (N = 22)): (22.7) % | TEAE leading to permanent discontinuation from study drug, Orthostatic hypotension, % (Part 1, 12.5 mg BID (N = 22)): 4.5% | TEAE leading to permanent discontinuation from study drug, Vascular disorders, % (Part 1, 12.5 mg BID (N = 22)): 4.5% | On-treatment TEAE, Cardiac disorders, % (Part 1, 12.5 mg QD (N = 23)): (8.7) % | On-treatment TEAE, Dizziness, % (Part 1, 12.5 mg QD (N = 23)): (4.3) % | On-treatment TEAE, Gastrointestinal disorders, % (Part 1, 12.5 mg QD (N = 23)): (8.7) % | On-treatment TEAE, Gastrointestinal disorders, Mild, % (Part 1, 12.5 mg QD (N = 23)): (4.3) % | On-treatment TEAE, General disorders and administration site conditions, % (Part 1, 12.5 mg QD (N = 23)): (4.3) % | On-treatment TEAE, Glomerular filtration rate decreased, % (Part 1, 12.5 mg QD (N = 23)): (4.3) % | On-treatment TEAE, Glomerular filtration rate decreased, Mild, % (Part 1, 12.5 mg QD (N = 23)): (4.3) % | On-treatment TEAE, Hyperkalaemia, % (Part 1, 12.5 mg QD (N = 23)): (26.1) % | On-treatment TEAE, Hyperkalaemia, Mild, % (Part 1, 12.5 mg QD (N = 23)): (17.4) % | On-treatment TEAE, Hyperkalaemia, Moderate, % (Part 1, 12.5 mg QD (N = 23)): (4.3) % | On-treatment TEAE, Hyperkalaemia, Severe, % (Part 1, 12.5 mg QD (N = 23)): (4.3) % | On-treatment TEAE, Hypertension, % (Part 1, 12.5 mg QD (N = 23)): (8.7) % | On-treatment TEAE, Hypertension, Moderate, % (Part 1, 12.5 mg QD (N = 23)): (4.3) % | On-treatment TEAE, Infections and infestations, % (Part 1, 12.5 mg QD (N = 23)): (13.0) % | On-treatment TEAE, Infections and infestations, Mild, % (Part 1, 12.5 mg QD (N = 23)): (13.0) % | On-treatment TEAE, Investigations, % (Part 1, 12.5 mg QD (N = 23)): (13.0) % | On-treatment TEAE, Investigations, Mild, % (Part 1, 12.5 mg QD (N = 23)): (13.0) % | On-treatment TEAE, Metabolism and nutrition disorders, % (Part 1, 12.5 mg QD (N = 23)): (26.1) % | On-treatment TEAE, Metabolism and nutrition disorders, Mild, % (Part 1, 12.5 mg QD (N = 23)): (17.4) % | On-treatment TEAE, Metabolism and nutrition disorders, Moderate, % (Part 1, 12.5 mg QD (N = 23)): (4.3) % | On-treatment TEAE, Nervous system disorders, % (Part 1, 12.5 mg QD (N = 23)): (8.7) % | On-treatment TEAE, Nervous system disorders, Mild, % (Part 1, 12.5 mg QD (N = 23)): (8.7) % | On-treatment TEAE, Orthostatic hypotension, % (Part 1, 12.5 mg QD (N = 23)): (8.7) % | On-treatment TEAE, Orthostatic hypotension, Mild, % (Part 1, 12.5 mg QD (N = 23)): (8.7) % | On-treatment TEAE, Urinary tract infection, % (Part 1, 12.5 mg QD (N = 23)): (4.3) % | On-treatment TEAE, Urinary tract infection, Mild, % (Part 1, 12.5 mg QD (N = 23)): (4.3) % | On-treatment TEAE, Vascular disorders, % (Part 1, 12.5 mg QD (N = 23)): (13.0) %
